± gives the standard deviation of the averaged measurements.
How the values were obtained:
XAV-939 = compound: Oc1nc(-c2ccc(C(F)(F)F)cc2)nc2c1CSCC2 [XAV-939]; assay: surviving fraction relative to DMSO-only wells; higher = less growth inhibition; conditions: exposure time: 5 days
Summary of the method: (§1)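 Viability was determined by CellTiter-Glo luminescence, expressed as surviving fraction normalised to the median of DMSO-only wells. The cells were log-phase tumour cell lines seeded at 250–500 per well in 384-well plates and, after 24 hours, exposed continuously for five days to inhibitors at 0.5, 1, 5, 10, 50, 100, 500 and 1000 nM. Three screens per line were run, keeping only lines with replicate Pearson r >0.7 and median Z' >0.3.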

SOTRASTAURIN/AEB071 = compound: CN1CCN(c2nc(C3=C(c4c[nH]c5ccccc45)C(=O)NC3=O)c3ccccc3n2)CC1 [SOTRASTAURIN/AEB071]; assay: as above; conditions: exposure time: 5 days
Summary of the method: as §1

Row | Test System | surviving fraction (XAV-939; 0.5 nM) | surviving fraction (XAV-939; 1 nM) | surviving fraction (XAV-939; 5 nM) | surviving fraction (XAV-939; 10 nM) | surviving fraction (XAV-939; 50 nM) | surviving fraction (XAV-939; 100 nM) | surviving fraction (XAV-939; 500 nM) | surviving fraction (XAV-939; 1000 nM) | surviving fraction (SOTRASTAURIN/AEB071; 0.5 nM) | surviving fraction (SOTRASTAURIN/AEB071; 1 nM) | surviving fraction (SOTRASTAURIN/AEB071; 5 nM) | surviving fraction (SOTRASTAURIN/AEB071; 10 nM) | surviving fraction (SOTRASTAURIN/AEB071; 50 nM) | surviving fraction (SOTRASTAURIN/AEB071; 100 nM) | surviving fraction (SOTRASTAURIN/AEB071; 500 nM) | surviving fraction (SOTRASTAURIN/AEB071; 1000 nM)
1 | SKBR3 BREAST | 1.07 ± 0.17 | 0.943 ± 0.089 | 1.04 ± 0.16 | 0.898 ± 0.054 | 1.11 ± 0.065 | 1.02 ± 0.1 | 0.854 ± 0.14 | 0.772 ± 0.053 | 1.12 ± 0.05 | 0.9717 ± 0.0031 | 1 ± 0.068 | 1.07 ± 0.15 | 0.782 ± 0.085 | 0.84 ± 0.11 | 0.818 ± 0.086 | 0.849 ± 0.12
2 | 22RV1 PROSTATE | 1.02 ± 0.072 | 1.05 ± 0.11 | 1.03 ± 0.032 | 1 ± 0.065 | 0.934 ± 0.024 | 0.977 ± 0.024 | 1 ± 0.12 | 1.03 ± 0.096 | 1.08 ± 0.014 | 1.11 ± 0.026 | 0.985 ± 0.013 | 1.05 ± 0.054 | 1.24 ± 0.26 | 1.2 ± 0.17 | 1.06 ± 0.099 | 1.03 ± 0.051
3 | LNCAP PROSTATE | 0.85 ± 0.076 | 0.83 ± 0.11 | 0.94 ± 0.058 | 0.921 ± 0.054 | 0.797 ± 0.071 | 0.936 ± 0.1 | 0.741 ± 0.12 | 0.713 ± 0.14 | 1.12 ± 0.11 | 1.05 ± 0.11 | 1.06 ± 0.052 | 0.998 ± 0.087 | 1.22 ± 0.069 | 1.16 ± 0.1 | 1.23 ± 0.025 | 1.18 ± 0.039
4 | CASKI CERVIX | 0.918 ± 0.017 | 0.944 ± 0.037 | 0.975 ± 0.011 | 0.997 ± 0.013 | 1.03 ± 0.028 | 1.06 ± 0.03 | 0.935 ± 0.037 | 0.965 ± 0.051 | 0.955 ± 0.051 | 0.962 ± 0.08 | 0.974 ± 0.035 | 0.906 ± 0.026 | 0.989 ± 0.12 | 0.898 ± 0.047 | 0.975 ± 0.021 | 0.863 ± 0.036
5 | HU09 BONE | 1.11 ± 0.087 | 1.13 ± 0.061 | 1.06 ± 0.17 | 1.09 ± 0.051 | 1.01 ± 0.11 | 1.21 ± 0.031 | 0.817 ± 0.049 | 0.788 ± 0.043 | 0.957 ± 0.092 | 1.03 ± 0.088 | 1.08 ± 0.075 | 1.1 ± 0.075 | 0.898 ± 0.085 | 0.929 ± 0.11 | 0.851 ± 0.026 | 0.925 ± 0.11
6 | MDAMB157 BREAST | 0.969 ± 0.012 | 0.94 ± 0.11 | 0.974 ± 0.059 | 1.05 ± 0.039 | 0.919 ± 0.084 | 0.934 ± 0.079 | 0.775 ± 0.071 | 0.709 ± 0.074 | 0.923 ± 0.041 | 1 ± 0.048 | 1.07 ± 0.12 | 1.04 ± 0.091 | 1.01 ± 0.03 | 0.971 ± 0.13 | 0.919 ± 0.053 | 0.936 ± 0.031
7 | HCC78 LUNG | 0.9 ± 0.1 | 0.925 ± 0.12 | 1.09 ± 0.18 | 0.991 ± 0.13 | 0.983 ± 0.082 | 0.822 ± 0.16 | 0.286 ± 0.062 | 0.358 ± 0.08 | 1.08 ± 0.35 | 0.934 ± 0.14 | 0.96 ± 0.073 | 1 ± 0.12 | 1.16 ± 0.18 | 1.48 ± 0.17 | 1.11 ± 0.059 | 1.05 ± 0.058
8 | HCC1395 BREAST | 0.889 ± 0.052 | 0.822 ± 0.34 | 0.987 ± 0.096 | 0.937 ± 0.25 | 0.973 ± 0.12 | 0.847 ± 0.23 | 1.04 ± 0.027 | 0.855 ± 0.14 | 0.996 ± 0.018 | 1.09 ± 0.058 | 1.16 ± 0.12 | 1.12 ± 0.15 | 1.19 ± 0.13 | 1.1 ± 0.1 | 0.885 ± 0.14 | 0.969 ± 0.075
9 | RDES SOFT TISSUE | 1.24 ± 0.15 | 1.3 ± 0.16 | 1.29 ± 0.21 | 1.22 ± 0.2 | 1.21 ± 0.14 | 1.18 ± 0.27 | 1.11 ± 0.11 | 1.08 ± 0.16 | 1.16 ± 0.061 | 1.22 ± 0.13 | 1.04 ± 0.13 | 1.05 ± 0.12 | 0.953 ± 0.017 | 0.871 ± 0.056 | 0.987 ± 0.075 | 1.01 ± 0.13
10 | MDAMB231 BREAST | 0.957 ± 0.013 | 1.01 ± 0.028 | 0.982 ± 0.021 | 0.983 ± 0.018 | 0.917 ± 0.016 | 0.866 ± 0.025 | 0.656 ± 0.015 | 0.586 ± 0.026 | 0.955 ± 0.013 | 0.974 ± 0.037 | 1.01 ± 0.022 | 0.984 ± 0.031 | 1 ± 0.046 | 1.02 ± 0.0072 | 1.08 ± 0.033 | 1.05 ± 0.024

Source: the supplement of paper PMC6045584
